Reference: US7173021B2, “Synthesis of temozolomide esters as potent anticancer pro-drugs for topical and transdermal applications in treatments of cancers” (Tianjin North Pharm Sci-Tech Co., Ltd., priority 2004, dated 2007)
≈ marks a conversion by molar mass, not a printed value.

What was measured:
[1] = In vitro permeation, Franz diffusion cell, silicone membrane; type: in vitro ADME; conditions: 37° C., 8 h, FIGS. 3-5
From the text: Jacketed Franz-type diffusion cells were used throughout the study and the barrier (12) (skin or silicone membrane) was mounted between the two chambers (14, 16) (2.8–3.4 cm^2 available surface area) with the dermal side in contact with the receiver solution (FIG. 2). The diffusion chambers (10) comprised a barrier of skin or silicone membrane (12) mounted between two chambers (14, 16). A cap (18) formed the donor compartment (14). The second receptor compartment (16) contained a receptor cell (20) with a stirring bar (22), sampling port (24) and cover (26). The stirring bar (22) was stirred by means of a magnet plate (28) having a rotating magnet. The receptor compartment comprised a water jacket (30) having a water inlet (32) and a water outlet (34).
Three types of materials were used in permeation studies. • 1. Silicone membrane (Silastic Medical Grade, 500-5, Dow Corning 0.005 in thick) was cut into circular sections (2 cm diameter) and washed with double distilled water prior to use. • 2. Full-thickness rat skin was obtained from Male Wistar rats aged 10 to 12 weeks and weighing 250 to 300 g, which were sacrificed by cervical dislocation, the abdomen shaved and the intact skin removed by dissection. Following removal of fat tissue, the skin was cut into circular pieces and used immediately. • 3. Samples of adult human epidermis were purchased from the Stephen Kirby Skin Bank (UK). The samples were from the leg, were stored at −18° C. and used within one week. Experiments
The membrane (as detailed above) was mounted on the diffusion cell (10), on which the surface area available for diffusion of each cell was about 2.8–3.4 cm^2. The cell cap (18) was placed on the membrane (12), and it was sealed with Parafilm® connecting the cell cap, membrane, and receptor cell. The capacity of each receptor cell was around 25–26 ml, which was filled with receptor solution and was completely in contact with the membrane sheet. During the course of experiment, the solution was continuously stirred by teflon-coated magnetic bar (22) placed in the cell (20). The temperature was maintained at 37° C. by a thermostatic water pump that circulated the water through the jacket (30) surrounding the cell body. The system was allowed to equilibrate under these conditions for half an hour. Finally, the prepared sample solution (2 ml) was added into the donor cap cell, and it was sealed with Parafilm® to minimize the evaporation of donor solution. 1 ml of receptor solution was removed every 30 minutes for 5 hours and then every 60 minutes for a further 3 hours. The volumes withdrawn were always replaced with equal volumes of fresh receptor solution to maintain constant volume. The concentration of each sample solution was determined by using HPLC.
For every sample, six determinations were performed on human and rat skin, and three determinations were carried out through artificial silicone membrane.
As stated above, after the removal of receptor solution, the receiver compartment was refilled with an identical volume of receptor fluid. This causes of the dilution of receptor solution leading to an under determination of the sample concentration. As a consequence, it was necessary to mathematically correct each successive sample concentrations, in the present invention, which was determined by applying the following equation:
[formula] where Ct is the actual current concentration of drug in the receptor phase at time t, Cmt is the apparent (i.e. measured) current concentration of drug in the receptor phase, Vs is the sample volume withdrawn for analysis, Vr is the volume of receptor solution, and ΣCm is the summed total of the previous measured concentrations.
Finally, the amount of drug penetrating the skin per unit area was calculated by dividing the obtained concentrations by the surface area available for diffusion cell and this value was different for each individual cell. […]

[2] = Solubility in 10% v/v propylene glycol; type: physicochemical; conditions: 10% v/v propylene glycol aqueous solution, aqueous with cosolvent or surfactant or cyclodextrin, thermodynamic from solid, ambient conditions, stirred 5 hours, read-out: Solubility, Concentration
Method: The potential of temozolomide esters used as topical and transdermal prodrugs is first proven through studies of their solubility. That is a decreased trend of solubility in an aqueous solution with increase of the length of the ester hydrocarbon alkyl chain of the temozolomide esters. It is clear the solubility constantly decreases from the methyl ester to the octyl ester, while temozolomide itself is 3.0 mg/ml similar to that of the methyl ester. […] Similarly to the esters, the solubility of the temozolomide amide products in the aqueous solution is considerably lower than that of temozolomide.
The solubility of temozolomide and the temozolomide esters was determined in 10% v/v propylene glycol by stirring an excess of the solid products at room temperature for 5 hours. The mixtures were then filtered, diluted with sample solvent and analysed using HPLC.

pig liver esterase = test: Enzymatic metabolizing study with pig liver esterase (1H NMR); type: in vitro ADME; conditions: 37° C., pH 7.4 buffer; ester complete at 10 minutes; amide followed up to 8 hours
Method: First the present invention establishes the metabolised process of the temozolomide esters by pig liver esterase in vitro. ^1H NMR spectra 1 (FIG. 1) records the degradation profile of the temozolomide methyl ester under incubation condition (Rathbone D L, 1999). […] Finally, at 10 minutes, the intensity of the singlet at 3.58 ppm grows to the grade similar to the original of the two singlets at 3.63 and 3.65 ppm, which while are completely eliminated. […] This discovery establishes the solid foundation for the temozolomide esters to be considered as the potential anticancer pro-drugs.
Enzymatic metabolizing studies of the temozolomide methyl ester was carried out using pig liver esterase enzyme from Sigma [a suspension in 3.2 M ammonium sulphate solution pH 8; 200 unit/mg protein (14 mg protein/ml)]. • A. To a NMR tube 2 mg of the temozolomide methyl ester was added, followed by 0.2 ml of d6-DMSO, 0.5 ml D2O of pH 7.4 sulphate buffer and finally 50 μl of the enzyme solution. Record a ^1H NMR spectrum immediately, then the mixture was incubated at 37° C. and record a ^1H NMR spectrum at each 5 minutes time interval. […] The samples were dissolved in d6-DMSO in an NMR tube, 50 μl of enzyme solution was added and the solution incubated at 37° C.

[3] = test system: A549 (human non small lung); test: In vitro tumour cell growth inhibition (MTT), A549; type: cell-based; conditions: Table 1 experiment, 96 h
Method: (§1) Temozolomide (white powder), temozolomide acid (white powder) and temozolomide-8-carboxylate hexyl (white scale crystal) were made in house. For the estimation of in vitro tumour cell growth inhibition, MV3 (human melanoma), M14 (human melanoma), B16 and B16-BL6 (mouse melanoma), SHG-44, TJ899 and TJ905 (human glioma), MCF-7 (human breast), HCT-8 (human colon), A549 (human non small lung), Bel7402 (human hepatocellulor), and BGC-823 (human stomach) were used. All tumour cells were cultured in RPMI-1640 medium supplemented with 10% fetal bovine serum (FBS) at 37° C. in a humidified 5% CO2 incubator.
(§2) After being harvested from culture flasks, a cell suspension of 1×10^4/ml was made by using 1640 RPMI medium supplemented with 10% fetal bovine serum. 100 μl (contains 1000 tumour cells) of the cell suspension was seeded per well of 96-well flat-bottom Costar culture plates at 37° C. in a humidified 5% CO2 incubator for 24 hrs before introducing drugs. Each tested compounds was made for five different concentrations and 100 μl of the each concentration was introduced into parallel three wells; control wells were added with 100 μl of plain medium alone; fluorouracil (a chemotherapeutic antitumour drug) was used as the positive control. Cells were then incubated for 96 h. Proliferative response and cell death were determined using MTT (3-(4,5-dimethylthiazolyl)-2,5-diphenyl-tetrazolium bromide) assay.
(§3) MTT assay: Following incubation of cells with the tested compounds for 96 h, 100 μl of 0.4 mg/ml MTT in RPMI 1640 was added to each well and the plate was incubated at 37° C. for 4 h. The plate was then centrifuged and followed by removal of medium. 150 μl of DMSO was then added to dissolve formazan crystal. DMSO-added plates were placed on a plate shaker for 5 min and absorbance was measured spectrophotometrically at 540 nm (with reference wavelength at 450 nm) using a Benchmark microtiter plate reader (Bio-Rad 550, Bio-Rad Laboratories, CA, U.S.A.).
(§4) The IC50 was calculated from the curve of the tested compound concentrations against the inhibition rate of the tumour cells. […]

BGC-823 (human stomach) = test: In vitro tumour cell growth inhibition (MTT), BGC-823; type: cell-based; conditions: Table 1 experiment, 96 h
Method: as §1, §2, §3, §4

MV3 (human melanoma) = test: In vitro tumour cell growth inhibition (MTT), MV3; type: cell-based; conditions: Homo sapiens, 96 h
Method: as §1, §2, §3
(§5) The IC50 was calculated from the curve of the tested compound concentrations against the inhibition rate of the tumour cells. Table 1 summarized the experiment results by using six human cancer cell lines, HCT-8 (colon carcinoma), A549 (non small lung carcinoma), MCF-7 (breast), Bel7402 (hepatocellulor carcinoma), BGC-823 (stomach adenocarcinoma), and MV3 (melanoma). Table 2 summarized the results from the experiment results by using two human melanoma cell lines, MV3 and M14, two mouse melanoma cell lines, B16 and B16-BL6, and three human glioma cell lines, TJ899, SHG-44 and TJ905.

[4] = test system: Bel7402 (human hepatocellulor); test: In vitro tumour cell growth inhibition (MTT), Bel-7402; type: cell-based; conditions: Table 1 experiment, 96 h
Method: as §1, §2, §3, §4

MCF-7 (human breast) = test: In vitro tumour cell growth inhibition (MTT), MCF-7; type: cell-based; conditions: MCF7, Table 1 experiment, 96 h
Method: as §1, §2, §3, §4

HCT-8 (human colon) = test: In vitro tumour cell growth inhibition (MTT), HCT-8; type: cell-based; conditions: Table 1 experiment, 96 h
Method: as §1, §2, §3, §4

B16 (mouse melanoma) = test: In vitro tumour cell growth inhibition (MTT), B16; type: cell-based; conditions: Mus musculus, Table 2 experiment, 96 h
Method: as §1, §2, §3, §5

TJ905 (human glioma) = test: In vitro tumour cell growth inhibition (MTT), TJ905; type: cell-based; conditions: Homo sapiens, Table 2 experiment, 96 h
Method: as §1, §2, §3, §5

TJ899 (human glioma) = test: In vitro tumour cell growth inhibition (MTT), TJ899; type: cell-based; conditions: Homo sapiens, Table 2 experiment, 96 h
Method: as §1, §2, §3, §5

M14 (human melanoma) = test: In vitro tumour cell growth inhibition (MTT), M14; type: cell-based; conditions: Homo sapiens, Table 2 experiment, 96 h
Method: as §1, §2, §3, §5

B16-BL6 (mouse melanoma) = test: In vitro tumour cell growth inhibition (MTT), B16-BL6; type: cell-based; conditions: Mus musculus, B16-BL6, Table 2 experiment, 96 h
Method: as §1, §2, §3, §5

SHG-44 (human glioma) = test: In vitro tumour cell growth inhibition (MTT), SHG-44; type: cell-based; conditions: Homo sapiens, SHG-44, Table 2 experiment, 96 h
Method: as §1, §2, §3, §5

TLX5 lymphoma cell line = conditions: Tsang 1990; cited from earlier work

| solubility at 5 h [2] [µg/mL] | IC50 [3] [µg/mL] | IC50 (BGC-823 (human stomach)) [µg/mL] | IC50 (MV3 (human melanoma); Table 1 experiment) [µg/mL] | IC50 [4] [µg/mL] | IC50 (MCF-7 (human breast)) [µg/mL] | IC50 (HCT-8 (human colon)) [µg/mL] | SMILES | Permeation through synthetic silicone membrane [1] | Degradation to temozolomide acid by pig liver esterase (pig liver esterase) | IC50 (B16 (mouse melanoma)) [µg/mL] | IC50 (TJ905 (human glioma)) [µg/mL] | IC50 (MV3 (human melanoma); Table 2 experiment (separate)) [µg/mL] | IC50 (TJ899 (human glioma)) [µg/mL] | IC50 (M14 (human melanoma)) [µg/mL] | IC50 (B16-BL6 (mouse melanoma)) [µg/mL] | IC50 (SHG-44 (human glioma)) [µg/mL] | in vitro IC50 compared with temozolomide (TLX5 lymphoma cell line) |
| --- | --- | --- | --- | --- | --- | --- | --- | --- | --- | --- | --- | --- | --- | --- | --- | --- | --- |
| 3000 (≈ 14300 µM) | – | – | – | – | – | – | COC(=O)c1ncn2c(=O)n(C)nnc12 [Temozolomide methyl ester, Methyl 3,4-dihydro-3-methyl-4-oxoimidazo[5,1-d]-1,2,3,5-tetrazine-8-carboxylate] | can not pass through the synthetic membrane easily | completely degraded and released temozolomide acid | – | – | – | – | – | – | – | – |
| – | 0.126 (≈ 0.969 µM) | 0.722 (≈ 5.55 µM) | 0.427 (≈ 3.28 µM) | 0.495 (≈ 3.81 µM) | 0.629 (≈ 4.84 µM) | 0.606 (≈ 4.66 µM) | O=c1[nH]cc(F)c(=O)[nH]1 [Fluorouracil, fluorouracil, reference compound] | – | – | – | – | – | – | – | – | – | – |
| – | – | – | – | – | – | – | O=NN(CCCl)C(=O)NCCCl [Carmustine] | – | – | 7.75 (≈ 36.2 µM) | 67.3 (≈ 314 µM) | 6.35 (≈ 29.7 µM) | 54.2 (≈ 253 µM) | 28.7 (≈ 134 µM) | 13.1 (≈ 61.3 µM) | 7.2 (≈ 33.6 µM) | – |
| – | > 19.5 | > 19.5 | 14.6 (≈ 74.9 µM) | 17 (≈ 86.9 µM) | 14.9 (≈ 76.4 µM) | 18.5 (≈ 94.9 µM) | Cn1nnc2c(C(=O)O)ncn2c1=O [temozolomide acid, 3,4-dihydro-3-methyl-4-oxoimidazo[5,1-d]-1,2,3,5-tetrazine-8-carboxylic acid] | – | – | 36.2 (≈ 185 µM) | > 100 | 36 (≈ 185 µM) | > 100 | 99 (≈ 507 µM) | 43.5 (≈ 223 µM) | 7.07 (≈ 36.2 µM) | almost identical to that of temozolomide |
